For experiment [1], the system named is intraocular inflammation by Lipopoly saccharide from E. Coli. As to the kind of experiment: Effect of eye drops on endotoxin intraocular inflammation by Lipopoly saccharide from E. Coli. The experiment is classed as in vivo, white male house rabbit. Particulars: 20 hours after LPS. The procedure: Effect on intraocular inflammation by Lipopoly saccharide from E. Coli
The eye drops of the compound (3), i.e., anthranylic acid amide of 8-(2-naphthyl)-5,6-trans-5,6-methano-7E-octenoic acid was prepared by formulating 3.8 mg of the compound (3) in 0.1 ml of ethanol followed by adding 0.9 ml of teel oil to obtain eye drops containing 0.38% of compound (3). The pH was 6.8.
The eye drops of the compound (7), i.e., 3,4-dimethoxy cinnamic acid ester of 8-(2-naphthyl)-5,6-trans-5,6-methano-7E-octene-1-ol were prepared by dissolving 5.3 mg of the compound (7) in 0.1 ml of ethanol upon heating at 70° C. to 80° C. followed by adding 0.9 ml of teel oil to obtain eye drops containing 0.53% of compound (7). The pH was 6.8.
Into one eye of a white male house rabbit having a body weight of 1.5 to 2.0 kg, were dropped the eye drops of the compounds (3) and (7), at 6 hours, 4 hours, and 1 hour before the experiment, and into the other eye, control eye drops containing 0.1 ml ethanol and 0.9 ml teel oil were dropped in the same manner.
To the vitreous body, 5 μg of lipopoly saccharide from E. coli (commercially available from Sigma) in 50 μl of physiolological saline was dropped. After 20 hours, the aqueous humor was taken and the protein content of the aqueous humor was determined by a Bio-rad assay method and the leucocyte in the aqueous humor was determined by a Neubauer Chamber. The LTB4 in the aqueous humor was determined by the HPLC and RIA methods.

Experiment [2] concerns LTB4 production. As to the kind of experiment: LTB4 production inhibition effect on iris of normal house rabbit. The experiment is classed as cell-based. As to conditions: Oryctolagus cuniculus, n=4; for inhibition at 100 µM: 10^-4 M; for inhibition at 10 µM: 10^-5 M; for inhibition at 1 µM: 10^-6 M; for inhibition at 0.1 µM: 10^-7 M. As to the method:
LTB4 production inhibition effect on iris of normal house rabbit
The iris of a normal house rabbit was enucleated, dipped in 1 cc of Tylord solution for control and 1 cc of Tylord solution containing a certain level of medicament, and after 5 minutes, the Tylord solution was passed through a SEP-pack, the portion containing leucotriene was separated by HPLC, and the LTB4 amount was measured by radioimmunoassay. (n=4)

Experiment [3] deals with LTB4 production. As to the kind of experiment: LTB4 production inhibition effect on human blood (Calcium ionophore-stimulated whole blood). The experiment is classed as cell-based. Particulars: 10^-5 M Calcium ionophore, Control 20. As to the method:
LTB4 production inhibition effect on human blood
A 10^-5 M amount of Calcium ionophore was added to human whole blood, followed by adding the compounds listed in Table 2 to evaluate the inhibition effect of these compounds on LTB4 production. The evaluation was carried out in a manner described in Gresele, P., Arnoult, J., Coene, M. C., Deckmyn, H., and Vermylen, J.: Leukotriene B4 production by stimulated whole blood: Comparative studies with isolated polymorphonuclear cells, Biochem. Biophys. Res. Commun. 137: 334-342, 1986.

Take `COC(=O)c1ccccc1NC(=O)CCC[C@H]1C[C@@H]1/C=C/c1ccc2ccccc2c1` (relative stereo) [Compound (3), Methyl anthranylate amide of 8-(2-naphthyl)-5,6-trans-5,6-methano-7E-octenoic acid]: in experiment [1] (eye drops 0.38% at 6, 4 and 1 hour before, Control 10.1 × 10^5), the Leucocyle in aqueous is 6.0 × 10^5 cells/ml. In addition, the Aqueous protein in experiment [1] (eye drops 0.38% at 6, 4 and 1 hour before, Control 30) is 40 mg/mL. In experiment [1] (eye drops 0.38% at 6, 4 and 1 hour before, Control 150), this compound displayed an LTB4 in aqueous of 7.5 pg/mL. In addition, in experiment [2], testing at 100 µM gave an inhibition of 95%, the inhibition at 10 µM was found to be 95%, at 1 µM the inhibition was 89% and the inhibition at 0.1 µM was 67%. Further, the “LTB4 production Amount” value in experiment [3] (10^-5 M) is 11 µg/mL. Also, in experiment [3] (10^-6 M), the “LTB4 production Amount” value was 12 µg/mL. Besides, in experiment [3] (10^-7 M), the “LTB4 production Amount” value worked out at 15 µg/mL.

In the case of `COc1ccc(/C=C/C(=O)OCCCC[C@H]2C[C@@H]2/C=C/c2ccc3ccccc3c2)cc1OC` (relative stereo) [Compound (7), 3,4-Dimethoxycinnamic acid ester of 8-(2-naphthyl)-5,6-trans-5,6-methano-7 E-octene-1-ol], the Leucocyle in aqueous in experiment [1] (eye drops 0.53% at 6, 4 and 1 hour before, Control 5.5 × 10^5) is reported as 7.5 × 10^5 cells/ml. The Aqueous protein in experiment [1] (eye drops 0.53% at 6, 4 and 1 hour before, Control 33) is 41 mg/mL. In experiment [1] (eye drops 0.53% at 6, 4 and 1 hour before, Control 320), the LTB4 in aqueous came out at 170 pg/mL. In experiment [2], this compound came in with an inhibition at 100 µM of 92%, an inhibition at 10 µM of 88%, an inhibition at 1 µM of 80% and an inhibition at 0.1 µM of 20%. For the same compound, the “LTB4 production Amount” value in experiment [3] (10^-5 M) was 12 µg/mL. Further, the “LTB4 production Amount” value in experiment [3] (10^-6 M) amounted to 12 µg/mL. Moreover, the “LTB4 production Amount” value in experiment [3] (10^-7 M) amounted to 13 µg/mL.

In experiment [2], `O=C(O)CCC[C@H]1C[C@@H]1/C=C/c1ccc2ccccc2c1` (relative stereo) [Reference compound, reference compound] came in with an inhibition at 100 µM of 35% and an inhibition at 10 µM of 0%.

These data come from patent US4990650A, “Aromatic derivative and preparation method thereof” (Teijin Limited, priority 1986, dated 1991).
